Data taken from patent US6039931A, “Derivatized DTPA complexes, pharmaceutical agents containing these compounds, their use, and processes for their production” (Schering Aktiengesellschaft, priority 1989, dated 2000).

Legend:
[1] = test system: female rats of the strain Lew/Mol; assay: in vivo MRI imaging (T1-weighted spin echo, 2 tesla) after i.v. administration, 3 compounds; design: species or system rat (Lew/Mol); settings: 0.1 mmol Gd/kg i.v.
Excerpt: The test animals were female rats of the strain Lew/Mol weighing 160-180 g. Prior to imaging, the animals were anesthetized ("Rompun"+"Ketavet") and provided with a catheter in the caudal vein to administer the contrast medium. Imaging took place in an MRI experimental device by General Electric (field strength 2 tesla). First of all, the images (7, 9, 11) were made without contrast medium with a T1 -weighted spin echo sequence (TR=400 msec, TE=20 msec, axial section plane, layer thickness 3 mm). The liver appears in each case with the normal signal intensity; the stomach is […] in tendency than the liver. […] This is due to feed residues, the feed containing manganese in relatively high concentrations (at the time of the test, the animals had been fasting for 6 hours) . Animal 3 had been implanted with an osteogenic sarcoma three weeks previously; this sarcoma was of equal contrast in the blank image and could not be defined. The administration of contrast medium took place via the venous catheter with a dose of 0.1 mmol Gd/kg (concentration of the solutions 0.05 mmol Gd/ml in 0.9% NaCl) for all 3 compounds.

[2] = T1 relaxation (relaxivity) in water and in plasma; format: physicochemical
[3] = test system: male hairless rat (Lew/Mol), Brown Pearce tumor; assay: in vivo NMR imaging (spin echo, 2 tesla) after i.v. administration, rat with Brown Pearce tumor in the thigh; settings: 0.06 mmol/kg i.v.
Excerpt: Spin echo scans were made with the NMR tomograph (CSI 2 T) at 2 tesla (TR time of 400 ms and TE time of 20 ms).

[4] = test system: female rats of the strain Lew/Mol; settings: at this point in time after administration; commercial contrast medium; cited from earlier work

Structure (SMILES): CCCCOc1ccc(CC(CN(CCN(CC(=O)[O-])CC(=O)[O-])CC(=O)[O-])N(CC(=O)[O-])CC(=O)[O-])cc1.[Gd+3].[Na+].[Na+] (stereo not drawn) [Example 9(c), Disodium Salt of the Gadolinium Complex of 3,6,9-Triaza-3,6,9-tris(carboxymethyl)-4-(4-butoxybenzyl)undecanedioic Acid]
- enhancement of the liver ([1]; after 60 minutes): A marked enhancement of the liver
- T1 relaxation ([2]; in plasma): 14.20 ± 0.98 mmol⁻¹ s⁻¹
- T1 relaxation ([2]; in water): 5.80 ± 0.26 mmol⁻¹ s⁻¹

Structure (SMILES): O=C([O-])CN(CCN(CC(=O)[O-])CC(Cc1ccc(OCc2ccccc2)cc1)N(CC(=O)[O-])CC(=O)[O-])CC(=O)[O-].[Gd+3].[Na+].[Na+] (stereo not drawn) [Example 10(c), Disodium Salt of the Gadolinium Complex of 3,6,9-Triaza-3,6,9-tris(carboxymethyl)-4-(4-benzyloxybenzyl)undecanedioic Acid]
- enhancement of the stomach, ranking among the 3 compounds [1]: most strongly
- enhancement of the liver ([1]; after 60 minutes): A marked enhancement of the liver
- absorption of the contrast medium by the tumor (implanted osteogenic sarcoma) ([1]; animal 3, 60 minutes): has not absorbed the contrast medium at all, or only to a lesser proportion
- visibility of the tumor (implanted osteogenic sarcoma) ([1]; animal 3, 60 minutes): the tumor is now additionally clearly visible

Structure (SMILES): COc1ccc(CC(CN(CCN(CC(=O)[O-])CC(=O)[O-])CC(=O)[O-])N(CC(=O)[O-])CC(=O)[O-])cc1.[Gd+3].[Na+].[Na+] (stereo not drawn) [Example 1(c) disodium salt, Gadolinium Complex of 3,6,9-Triaza-3,6,9-tris(carboxymethyl)-4-(4-methoxybenzyl)undecanedioic Acid]
- enhancement in the urinary bladder ([3]; 1 minute after administration): the first enhancement is already apparent in the urinary bladder
- increase in contrast in the stomach ([3]; 45 minutes after injection): A strong increase in contrast is visible in the stomach
- visualization of the tumor, of the urinary bladder, and of the stomach ([3]; 60 minutes after injection): A good visualization of the tumor (at the level of the reference tube) of the urinary bladder, and of the stomach
- contrasting of the renal pelvis ([3]; 60 minutes, further improved 65 minutes after injection in a different layer): Contrasting of the renal pelvis is also striking
- contrast enhancement in an axial scan in the zone of the liver ([3]; 180 minutes after injection): the contrast enhancement is likewise clearly recognizable

Structure (SMILES): CCOc1ccc(CC(CN(CCN(CC(=O)[O-])CC(=O)[O-])CC(=O)[O-])N(CC(=O)[O-])CC(=O)[O-])cc1.[Gd+3].[Na+].[Na+] (stereo not drawn) [Example 8(c), Disodium Salt of the Gadolinium Complex of 3,6,9-Triaza-3,6,9-tris(carboxymethyl)-4-(4-ethoxybenzyl)undecanedioic Acid]
- enhancement of the stomach, ranking among the 3 compounds [1]: least
- enhancement of the liver ([1]; after 90 minutes): A marked enhancement of the liver

Structure (SMILES): CNC[C@H](O)[C@@H](O)[C@H](O)[C@H](O)CO.CNC[C@H](O)[C@@H](O)[C@H](O)[C@H](O)CO.O=C([O-])CN(CCN(CC(=O)[O-])CC(=O)O)CCN(CC(=O)[O-])CC(=O)O.[Gd+3] [Magnevist, dimeglumine salt of Gd DTPA [gadolinium(III)complex of diethylenetriaminepentaacetic acid]]
- enhancement of the liver (uptake by the hepatocytes), comparison [4]: cannot be observed at this point in time after administration
